{"source": "patent US20250186401A1", "about": "“COMBINATORIAL ACTIVATION OF GABA(B) AND A2 ADRENERGIC RECEPTORS PROVIDES RELIEF FROM STRESS INDUCED DEPRESSION” (University of Florida Research Foundation, Incorporated, priority 2022, published 2025)", "test_system": "mice subjected to UCMS", "experiment": "TST in unpredictable chronic mild stress (UCMS) model", "format": "in vivo", "conditions": "UCMS mice (4 weeks); injection day 29, TST 30 min after; vs vehicle; FIG. 3B", "description": "TST was performed 30 min after injection time. To perform the TST, the tails of the mice were wrapped with tape that covered approximately 4/5 of the tail length and then fixed upside down on a hook. The immobility time of each mouse was recorded and tracked over a 6 min period. The Porsolt FST was conducted using vertical clear glass cylinder (10 cm in diameter, 25 cm in height) filled with water (25° C.). The mice spent 6 min in the water and immobility was scored from 2 to 6 min. A mouse was regarded as immobile when floating motionless or making only those movements necessary to keep its head above the water.\nThis study investigated the effects of ClonBac in a mouse model of unpredictable chronic mild stress (0). For the UCMS paradigm, mice were housed in individual cages and were subjected to 4 weeks of stressors, with two stressors applied within a 24 hr period. Stressors were applied pseudo-randomly and included: intermittent bell (10 db, 1/10 s), continuous white noise for 4 h, rat odor, 45° cage tilt for 4 h, 30 minute cage shaking, soiled bedding for 8 hr, paired housing with a new partner for 2 h, overnight illumination, removal of nesting material for 12 hr, placement of a novel object in home cage for 3 h, and physical restraint for 1 h. Stressors continued to be applied during the behavioral testing phase. […]", "data": [{"compound": "NCC(CC(=O)O)c1ccc(Cl)cc1", "note": "(stereo not drawn) [baclofen, β-(4-chlorophenyl)-γ-aminobutyric acid]", "values": [{"measurement": "TST immobility time", "result": "significantly attenuated immobility TST time"}]}]}
